The text below walks through data of US8178668B2, “2-aminopyridine kinase inhibitors” (OSI Pharmaceuticals, LLC, priority 2008, dated 2012).

One assay concerns the target RON (human) (Homo sapiens, UniProt Q04912). Put plainly: RON kinase AlphaScreen assay (Km of ATP). The class given is biochemical. Conditions: ATP at Km; at least duplicate experiments. The procedure, abridged:
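AlphaScreen with PT66 donor/acceptor beads, read after 1 h, detected phosphorylation of biotinylated poly(Glu,Tyr) by human RON. Enzyme-started reactions ran 30 min at room temperature with ATP at Km. Buffer was HEPES pH 7.4 with MgCl2, glycerol, vanadate and 1% DMSO.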
Background: Bead proximity is the source of the signal in Alpha formats.

The next assay addresses MET (human) (Homo sapiens, UniProt P08581). The assay is described as follows: MET kinase AlphaScreen assay (Km of ATP). In kind it is biochemical. Conditions: ATP at Km; at least duplicate experiments. The procedure, abridged:
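AlphaScreen detection with PT66 beads (1 h) follows a 60 min room-temperature MET reaction. Substrate is 200 ng/μL biotinylated poly(Glu,Tyr), with ATP set at an enzyme-optimized concentration. Buffer is HEPES pH 7.4 with MgCl2, MnCl2 and 0.334 mM vanadate, compounds at 1% DMSO.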

Structures are written as SMILES. Structures can show the parent of a compound that is named as a salt.

Chain of RON (human) (Q04912 25-1400): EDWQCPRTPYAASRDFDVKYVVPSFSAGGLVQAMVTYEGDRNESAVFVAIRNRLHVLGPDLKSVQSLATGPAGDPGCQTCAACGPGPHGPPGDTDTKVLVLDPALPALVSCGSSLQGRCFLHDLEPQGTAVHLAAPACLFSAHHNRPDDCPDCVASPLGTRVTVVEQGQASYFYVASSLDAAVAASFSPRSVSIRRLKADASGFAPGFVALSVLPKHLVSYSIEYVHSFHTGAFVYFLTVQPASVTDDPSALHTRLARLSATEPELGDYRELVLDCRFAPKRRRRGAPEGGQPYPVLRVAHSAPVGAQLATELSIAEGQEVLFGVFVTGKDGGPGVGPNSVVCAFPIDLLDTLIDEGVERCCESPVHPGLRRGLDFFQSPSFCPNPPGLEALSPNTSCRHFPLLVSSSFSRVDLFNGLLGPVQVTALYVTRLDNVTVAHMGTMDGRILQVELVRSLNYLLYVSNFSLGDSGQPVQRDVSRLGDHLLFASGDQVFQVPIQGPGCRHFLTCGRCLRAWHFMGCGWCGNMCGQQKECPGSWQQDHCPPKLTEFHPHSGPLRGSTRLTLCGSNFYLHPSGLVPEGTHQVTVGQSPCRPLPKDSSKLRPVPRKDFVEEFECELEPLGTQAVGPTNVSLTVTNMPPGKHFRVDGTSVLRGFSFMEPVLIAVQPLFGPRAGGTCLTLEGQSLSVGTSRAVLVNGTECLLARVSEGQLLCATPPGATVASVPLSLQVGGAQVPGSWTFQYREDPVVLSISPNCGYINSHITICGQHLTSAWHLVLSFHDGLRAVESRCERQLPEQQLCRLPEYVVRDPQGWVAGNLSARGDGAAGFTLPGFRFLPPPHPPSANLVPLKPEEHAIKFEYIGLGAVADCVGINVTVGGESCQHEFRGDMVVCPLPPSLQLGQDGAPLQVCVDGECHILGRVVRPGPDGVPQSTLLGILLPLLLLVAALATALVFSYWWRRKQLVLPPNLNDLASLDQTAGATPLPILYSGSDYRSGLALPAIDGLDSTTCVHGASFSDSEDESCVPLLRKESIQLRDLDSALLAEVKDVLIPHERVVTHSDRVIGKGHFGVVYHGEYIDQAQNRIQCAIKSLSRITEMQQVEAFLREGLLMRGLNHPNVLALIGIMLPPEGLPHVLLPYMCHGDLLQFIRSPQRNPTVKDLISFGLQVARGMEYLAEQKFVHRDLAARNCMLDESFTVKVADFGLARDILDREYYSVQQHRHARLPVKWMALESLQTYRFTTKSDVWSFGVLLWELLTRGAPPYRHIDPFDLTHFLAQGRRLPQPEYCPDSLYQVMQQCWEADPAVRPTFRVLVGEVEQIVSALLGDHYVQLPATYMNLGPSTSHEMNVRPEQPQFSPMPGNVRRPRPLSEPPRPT
Chain of MET (human) (P08581 25-1390): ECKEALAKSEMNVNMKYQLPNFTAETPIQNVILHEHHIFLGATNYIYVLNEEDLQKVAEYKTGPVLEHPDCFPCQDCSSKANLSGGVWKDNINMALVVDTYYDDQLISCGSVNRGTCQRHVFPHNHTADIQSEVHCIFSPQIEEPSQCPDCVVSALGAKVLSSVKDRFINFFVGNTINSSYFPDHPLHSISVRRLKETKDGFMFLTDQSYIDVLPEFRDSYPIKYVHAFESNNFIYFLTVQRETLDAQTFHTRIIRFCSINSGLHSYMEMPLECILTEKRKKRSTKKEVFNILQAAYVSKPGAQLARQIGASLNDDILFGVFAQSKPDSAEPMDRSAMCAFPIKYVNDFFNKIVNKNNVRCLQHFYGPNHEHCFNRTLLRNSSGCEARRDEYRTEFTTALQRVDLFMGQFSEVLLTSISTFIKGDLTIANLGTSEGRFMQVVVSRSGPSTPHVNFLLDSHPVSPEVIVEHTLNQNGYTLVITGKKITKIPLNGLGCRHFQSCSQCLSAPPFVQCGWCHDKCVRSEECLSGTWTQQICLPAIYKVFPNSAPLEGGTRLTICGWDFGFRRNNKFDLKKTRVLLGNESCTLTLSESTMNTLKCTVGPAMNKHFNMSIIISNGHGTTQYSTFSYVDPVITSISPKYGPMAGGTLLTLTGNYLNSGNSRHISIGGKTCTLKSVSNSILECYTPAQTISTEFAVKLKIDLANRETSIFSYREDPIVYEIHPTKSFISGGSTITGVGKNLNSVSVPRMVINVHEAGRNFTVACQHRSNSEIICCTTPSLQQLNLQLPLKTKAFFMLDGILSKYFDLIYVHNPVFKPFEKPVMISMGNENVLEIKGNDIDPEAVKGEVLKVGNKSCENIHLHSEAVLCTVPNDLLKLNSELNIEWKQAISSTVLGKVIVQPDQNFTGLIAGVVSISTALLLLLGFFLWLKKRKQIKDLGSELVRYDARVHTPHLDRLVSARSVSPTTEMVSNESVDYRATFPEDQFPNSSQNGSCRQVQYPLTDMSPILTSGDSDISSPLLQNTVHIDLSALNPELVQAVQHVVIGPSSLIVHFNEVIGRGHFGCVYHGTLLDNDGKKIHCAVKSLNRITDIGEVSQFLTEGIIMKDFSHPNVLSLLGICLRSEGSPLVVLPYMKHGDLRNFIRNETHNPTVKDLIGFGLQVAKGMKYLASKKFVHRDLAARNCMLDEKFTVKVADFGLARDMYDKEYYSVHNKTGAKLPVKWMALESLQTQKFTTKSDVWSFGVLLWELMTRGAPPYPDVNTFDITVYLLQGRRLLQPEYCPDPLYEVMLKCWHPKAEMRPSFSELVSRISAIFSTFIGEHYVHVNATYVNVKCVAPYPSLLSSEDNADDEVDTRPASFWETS

As for `Nc1ncc(-c2cnn(C3CCN(CC(F)(F)F)CC3)c2)cc1-c1nc2ccccc2s1` [Example 115, 3-Benzothiazol-2-yl-5-1-[1-(2,2,2-trifluoroethyl)-piperidin-4-yl]-1H-pyrazol-4-yl-pyridin-2-ylamine dihydrochloride], the half-inhibitory concentration (IC50) at RON (human) and against MET (human) was 1 to 20 µM throughout.
`Nc1ncc(-c2cccc(C(=O)N3CCC(F)(F)C3)c2)cc1-c1nc2ccccc2s1` [Example 227, [3-(6-Amino-5-benzothiazol-2-ylpyridin-3-yl)phenyl]-(3,3-difluoropyrrolidin-1-yl)methanone]: the 50% inhibitory concentration (IC50) at RON (human) and against MET (human) was 1 to 20 µM in each case.
Take `Nc1ncc(-c2cnn(CCC(=O)N3CCCC3)c2)cc1-c1nc2ccccc2s1` [Example 153, 3-[4-(6-Amino-5-benzothiazol-2-ylpyridin-3-yl)-pyrazol-1-yl]-1-pyrrolidin-1-ylpropan-1-one]: the 50% inhibitory concentration (IC50) (in general, the midpoint of a concentration-inhibition curve) is above 20 µM at RON (human) and 0.1 to 1 µM at MET (human).
Regarding `CCOC(=O)COc1ccc(-c2cnc(N)c(-c3cc4c(Cl)ccc(F)c4cn3)c2)cc1` [Example 83, Ethyl-[4-(6-amino-5-(5-chloro-8-fluoroisoquinolin-3-yl)pyridin-3-yl)phenoxy]acetate], the 50% inhibitory concentration (IC50) against RON (human) and against MET (human) was 1 to 20 µM in each case.
`Nc1ncc(-c2cnn(C3CCNCC3)c2)cc1-c1cc2c(O)cccc2cn1` [Example 27, 3-[2-Amino-5-(1-piperidin-4-yl-1H-pyrazol-4-yl)-pyridin-3-yl]-isoquinolin-5-ol tri-hydrochloride salt]: the IC50 on RON (human) and against MET (human) was 0.1 to 1 µM each time.
As to `Nc1ncc(-c2cnn(CC(=O)N3CCOCC3)c2)cc1-c1nc2ccccc2s1` [Example 132, 2-[4-(6-Amino-5-benzothiazol-2-ylpyridin-3-yl)-pyrazol-1-yl]-1-morpholin-4-ylethanone], the 50% inhibitory concentration (IC50) against RON (human) and at MET (human) was 1 to 20 µM each time.
For `Nc1ncc(-c2cnn(C3CCOCC3)c2)cc1-c1nc2ccccc2s1` [Example 111, 3-Benzothiazol-2-yl-5-[1-(tetrahydropyran-4-yl)-1H-pyrazol-4-yl]-pyridin-2-ylamine], the IC50 against RON (human) and against MET (human) was 0.1 to 1 µM each time.
With `Nc1ncc(-c2cnn(C3CCNCC3)c2)cc1-c1nc2c(C(F)(F)F)cccc2s1` [Example 262, 5-(1-Piperidin-4-yl-1H-pyrazol-4-yl)-3-(4-trifluoromethylbenzothiazol-2-yl)-pyridin-2-ylamine], the 50% inhibitory concentration (IC50) at RON (human) and on MET (human) was 0.1 to 1 µM each time.
`CC(C(N)=O)n1cc(-c2cnc(N)c(-c3nc4ccccc4s3)c2)cn1` (stereo not shown) [Example 145, 2-[4-(6-Amino-5-benzothiazol-2-ylpyridin-3-yl)-pyrazol-1-yl]-propionamide]: the results for the half-inhibitory concentration (IC50) on RON (human) and on MET (human) were 1 to 20 µM and 0.1 to 1 µM, respectively.
The corresponding values for `CN(C)C(=O)[C@@H]1C[C@H](n2cc(-c3cnc(N)c(-c4cc5c(Cl)ccc(F)c5cn4)c3)cn2)CN1` [Example 71, (2S,4S)-4-{4-[6-Amino-5-(5-chloro-8-fluoroisoquinolin-3-yl)-pyridin-3-yl]-pyrazol-1-yl}-pyrrolidine-2-carboxylic acid dimethylamide] are 0.1 to 1 µM and at most 0.1 µM.
The corresponding values for `CC(=O)Nc1ccc(-c2cnc(N)c(-c3cc4c(Cl)ccc(F)c4cn3)c2)cc1` [Example 82, N-4-[6-Amino-5-(5-chloro-8-fluoroisoquinolin-3-yl)pyridin-3-yl]phenylacetamide] are above 20 µM and 1 to 20 µM.
For `Nc1ncc(-c2cnn(C3CCNCC3)c2)cc1-c1nc2c(Br)cc(OC(F)(F)F)cc2s1` [Example 287, 3-(4-Bromo-6-trifluoromethoxybenzothiazol-2-yl)-5-(1-piperidin-4-yl-1H-pyrazol-4-yl)-pyridin-2-ylamine], the half-inhibitory concentration (IC50) at RON (human) was in the range of 0.1 to 1 µM; against MET (human), 1 to 20 µM.
The corresponding values for `CN(C)C(=O)COc1ccc(-c2cnc(N)c(-c3nc4ccccc4s3)c2)cc1` [Example 239, 2-[4-(6-Amino-5-benzothiazol-2-ylpyridin-3-yl)-phenoxy]-N,N-dimethylacetamide] are 1 to 20 µM and 1 to 20 µM.
The corresponding values for `Nc1ncc(-c2cnn(C3CCNCC3)c2)cc1-c1nc2c(C(F)(F)F)ccc(Cl)c2s1` [Example 282, 3-(7-Chloro-4-trifluoromethylbenzothiazol-2-yl)-5-(1-piperidin-4-yl-1H-pyrazol-4-yl)-pyridin-2-ylamine] are 0.1 to 1 µM and 0.1 to 1 µM.
For `CN1CCN(c2ncc(-c3cnc(N)c(-c4nc5ccccc5s4)c3)s2)CC1` [Example 121, 3-Benzothiazol-2-yl-5-[2-(4-methylpiperazin-1-yl)-thiazol-5-yl]-pyridin-2-ylamine dihydrochloride] the same measures were 0.1 to 1 µM and 0.1 to 1 µM.
For `Nc1ncc(-c2cnn(C3CCNCC3)c2)cc1N1CCc2c(F)ccc(F)c2C1` [Example 303, 3-(5,8-Difluoro-3,4-dihydro-1H-isoquinolin-2-yl)-5-(1-piperidin-4-yl-1H-pyrazol-4-yl)-pyridin-2-ylamine], the half-maximal inhibitory concentration (IC50) against RON (human) and against MET (human) was 0.1 to 1 µM in each case.
As for `Nc1ncc(-c2ccc(OCC(=O)N3CCN(CCO)CC3)cc2)cc1-c1nc2ccccc2s1` [Example 246, 2-[4-(6-Amino-5-benzothiazol-2-yl-pyridin-3-yl)phenoxy]-1-[4-(2-hydroxyethyl)piperazin-1-yl]ethanone], the half-inhibitory concentration (IC50) fell in the range of 1 to 20 µM at RON (human) and 0.1 to 1 µM against MET (human).
The corresponding values for `Nc1ncc(-c2ccc(C(=O)N3CCCCC3)cc2)cc1-c1nc2ccccc2s1` [Example 195, [4-(6-Amino-5-benzothiazol-2-ylpyridin-3-yl)phenyl]piperidin-1-ylmethanone] are above 20 µM and above 20 µM.
For `Nc1ncc(-c2cccc(C(=O)N3CCC(O)C3)c2)cc1-c1nc2ccccc2s1` (stereo not shown) [Example 222, [3-(6-Amino-5-benzothiazol-2-ylpyridin-3-yl)phenyl]-(3-hydroxypyrrolidin-1-yl)methanone], the IC50 against RON (human) and at MET (human) was 1 to 20 µM in each case.
Turning to `Nc1ncc(-c2cnn(C3CCNCC3)c2)cc1-c1cc2c(-c3cncs3)ccc(F)c2cn1` [Example 56, 3-(8-Fluoro-5-thiazol-5-ylisoquinolin-3-yl)-5-(1-piperidin-4-yl-1H-pyrazol-4-yl)-pyridin-2-ylamine trihydrochloride], the IC50 against RON (human) and at MET (human) was 0.1 to 1 µM throughout.
On to `Nc1ncc(-c2cnn(C3CCNCC3)c2)cc1-c1cc2ccc(F)c(Cl)c2cn1` [Example 38, 3-(8-Chloro-7-fluoroisoquinolin-3-yl)-5-(1-piperidin-4-yl-1H-pyrazol-4-yl)-pyridin-2-ylamine trihydrochloride salt], for which the IC50 is 0.1 to 1 µM on RON (human) and at most 0.1 µM against MET (human).
For `CC(C(=O)N1CCC(O)C1)n1cc(-c2cnc(N)c(-c3nc4ccccc4s3)c2)cn1` (stereo not shown) [Example 149, 2-[4-(6-Amino-5-benzothiazol-2-ylpyridin-3-yl)-pyrazol-1-yl]-1-(3-hydroxypyrrolidin-1-yl)-propan-1-one], the IC50 on RON (human) and against MET (human) was 1 to 20 µM each time.
Consider `Nc1ncc(-c2cnn(C3CCNCC3)c2)cc1-c1cc2cccc(F)c2cn1` [Example 39, 3-(8-Fluoroisoquinolin-3-yl)-5-(1-piperidin-4-yl-1H-pyrazol-4-yl)-pyridin-2-ylamine], for which the IC50 against RON (human) is 0.1 to 1 µM; on MET (human) it was at most 0.1 µM.
